pIC50: −log10 of the molar value. Like-named read-outs stand apart in the source and are kept apart here.
Tests used:
[1] = target: T1, GST-tagged full-length FAK enzyme (PTK2) (Homo sapiens, UniProt Q05397); assay: Biochemical Omnia Assay (FAK)
T1 construct: GST-tagged full-length FAK enzyme (PTK2, Invitrogen PV4085); GST; purchased Invitrogen PV4085
Description: Biochemical Omnia Assay Protocol
The Omnia Assay (Invitrogen) has been optimized for GST-tagged full-length FAK enzyme (PTK2, Invitrogen PV4085).
All compound concentrations were assayed in duplicate. Initial compound dilutions were prepared at 100× concentration in 100% DMSO from a 10 mM stock solution. Compounds were further diluted 1:25 in assay buffer resulting in a 4× concentrated solution.
In running the assay, 5 μL of the above 4× concentrated compound solution (or 4% DMSO for positive controls) was added to the assay plate followed by 5 μL of a solution containing peptide (40 μM) and ATP (200 μM) in assay buffer. The reaction was initiated by the addition of 10 μL of FAK (50 nM) in assay buffer, or assay buffer alone for negative controls. The increase in fluorescence due to peptide phosphorylation was monitored continuously as a function of time using a Spectramax M5 plate reader (Molecular Devices) equipped with SoftMax Pro 5.2 software.
IC50 values were determined from the slopes of the linear progress curves by non-linear curve-fitting using GraphPad Prism 5 (GraphPad Software, Inc.).

FAK = target: T2, FAK (Homo sapiens, UniProt Q05397); assay: Cell-based capture ELISA for inhibition of FAK autophosphorylation [pY397] in U87MG cells
T2 construct: endogenous in cells; host or cells: U87MG glioblastoma cells (ATCC HTB-14)
Description: Cell-Based Assays for Inhibition of FAK Autophosphorylation: MiaPaCa2 and U87MG
The ability of compounds to inhibit FAK autophosphorylation was determined in a cell-based capture ELISA assay using U87MG glioblastoma cells (ATCC, Cat # HTB-14) and the FAK [pY397]ELISA kit from Invitrogen (KHO0441). The assay determines the ability of compounds to block endogenous autophosphorylation of FAK stimulated by fibronectin. Cells plated on fibronectin coated 96-well plate were incubated with compounds at various concentrations in the complete growth medium for 2 h. Cell lysates were then prepared and FAK protein was captured onto a FAK antibody-coated 96-well ELISA plate. The phosphotyrosine content of FAK protein was then monitored by quantitation of degree of binding of an antibody that recognizes only the phosphorylated FAK at Y397 within the captured protein.
Reagents Provided in Biosource FAK [pY397]
Cultures of U87MG cells growing in MEM (Earles) containing non-essential amino acids, sodium pyruvate (1 mM), […] (1%) and 10% fetal bovine serum were detached by trypsin-EDTA and suspended in cell growth medium. Cells were then plated onto fibronectin (600 ng/well)-coated 96-well flat bottom plates at 1.7×10^4 cells per well in 60 uL cell growth medium and incubated overnight at 37° C. in a CO2 incubator.
Compound dilutions were prepared from 10 mM DMSO stocks by dilution in cell growth medium, the final concentration of DMSO in the assay being 0.6%. […] The cells were then incubated with compounds at 37° C. for 2 h. The medium was removed by aspiration and cells were lysed by addition of 20 uL of ice-cold cell lysis buffer per well. The plates were kept on ice for 20 min and 50 uL of standard diluent was added to each well. 50 uL of cell lysate from each well was transferred to respective wells in an assay plate and 50 uL of detection antibody was added to all wells except H1-H6 which were no antibody control wells. Capture assay plates were incubated overnight in a cold room.
Following incubation of the cell lysates and detection antibodies in the ELISA plate, the wells were washed 4 times with 120 uL of wash buffer (1×), then 100 uL of diluted HRP conjugated antibody (1:100 dil in diluent) was added to each well, and the plate was incubated at RT for 30 min. The wells were then washed for 4 times with 120 uL of wash buffer (1×) and 100 uL of chromogen was added to each well and incubated in the dark at RT for 5-10 min. 100 uL of stop solution was added to each well and the absorbance measured at 450 nm, 0.1 s.
Comparison of the assay signals obtained in the presence of compound with those of positive and negative controls (cells with no compound and no detection antibody being added), allows degree of inhibition of phospho-FAK [Y397] to be determined over a range of compound concentrations. […] The assay as described above was modified to determine the effect of inclusion of 50% (v/v) mouse or human plasma. In this assay, the compound plate was prepared as 2× concentration in 100 uL of 100% mouse or human plasma, and 60 uL of this was added to 60 uL of culture medium and incubated at 37° C. incubator for 2 h. The rest of the assay was carried out as described above.

[2] = mean IC50, [ATP] = 50uM, read-out: FAK Activity Biochemical OMNIA, [ATP] = 50uM
[3] = 50% (v/v) human plasma, mean IC50, read-out: FAK Activity Mechanistic (U87MG) HP
[4] = no plasma present, mean IC50, read-out: FAK Activity Mechanistic (U87MG) NP
[5] = 50% (v/v) mouse plasma, mean IC50, read-out: FAK Activity Mechanistic (U87MG) MP

T1 sequence (Q05397 whole entry): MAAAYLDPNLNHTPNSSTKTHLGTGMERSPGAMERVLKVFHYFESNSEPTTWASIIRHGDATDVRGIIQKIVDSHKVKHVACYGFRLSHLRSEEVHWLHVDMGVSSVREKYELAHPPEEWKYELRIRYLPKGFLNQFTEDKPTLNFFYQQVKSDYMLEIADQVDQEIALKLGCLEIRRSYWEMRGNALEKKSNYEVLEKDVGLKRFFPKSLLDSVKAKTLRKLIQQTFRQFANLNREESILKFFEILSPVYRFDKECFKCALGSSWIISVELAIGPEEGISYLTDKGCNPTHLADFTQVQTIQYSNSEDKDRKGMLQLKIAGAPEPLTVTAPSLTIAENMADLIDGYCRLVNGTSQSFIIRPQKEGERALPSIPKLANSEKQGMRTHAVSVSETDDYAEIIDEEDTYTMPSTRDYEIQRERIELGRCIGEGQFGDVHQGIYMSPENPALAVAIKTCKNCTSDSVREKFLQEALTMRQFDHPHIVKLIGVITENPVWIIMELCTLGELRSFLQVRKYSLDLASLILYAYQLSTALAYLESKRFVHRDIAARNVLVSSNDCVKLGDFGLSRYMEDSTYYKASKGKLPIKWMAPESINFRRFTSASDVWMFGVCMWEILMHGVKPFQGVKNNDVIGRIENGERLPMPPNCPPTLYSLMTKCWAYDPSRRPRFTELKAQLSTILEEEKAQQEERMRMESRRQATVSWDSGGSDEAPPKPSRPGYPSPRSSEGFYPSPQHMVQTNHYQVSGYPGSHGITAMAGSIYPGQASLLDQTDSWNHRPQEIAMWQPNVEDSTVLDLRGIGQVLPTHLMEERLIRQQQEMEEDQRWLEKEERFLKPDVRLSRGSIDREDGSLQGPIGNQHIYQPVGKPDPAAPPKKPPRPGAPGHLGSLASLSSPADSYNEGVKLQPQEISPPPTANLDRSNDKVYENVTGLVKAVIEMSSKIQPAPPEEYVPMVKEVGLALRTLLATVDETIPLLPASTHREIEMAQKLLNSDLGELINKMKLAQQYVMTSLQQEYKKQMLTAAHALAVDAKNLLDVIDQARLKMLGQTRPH
T2 sequence (Q05397 whole entry): as above

Row | SMILES | pIC50 [1, 2] | pIC50 (FAK; [3]) | pIC50 (FAK; [4]) | pIC50 [1] | pIC50 (FAK; [5]) | pIC50 ([1]; read-out: FAK Activity Biochemical OMNIA, [ATP] = 50uM, mean IC50, [ATP] = 50uM)
1 | CCOP1(=O)Cc2ccc(c(F)c2)Nc2ncc(C(F)(F)F)c(n2)Nc2ccc(nc2C(=O)NC)-c2cnn(c2)CCCCO1 (racemic) [Example 23] | > 6.40 | > 6.40 | > 6.40 | – | – | –
2 | CCNC(=O)c1cc2ccc1Nc1nc(ncc1C(F)(F)F)Nc1ccc(cc1)CP(=O)(OCC)OCCCn1cc-2cn1 (racemic) [Example 10] | – | < 5.40 | 5.40 to 6.40 | > 6.40 | – | –
3 | CCOP1(=O)Cc2ccc(c(OC)c2)Nc2ncc(C(F)(F)F)c(n2)Nc2ccc(c(F)c2C(=O)NC)-c2cnn(c2)CCCO1 (racemic) [Example 27] | – | – | > 6.40 | > 6.40 | 5.40 to 6.40 | –
4 | CCOP1(=O)Cc2ccc(c(Cl)c2)Nc2ncc(C(F)(F)F)c(n2)Nc2ccc(nc2C(=O)NC)-c2cnn(c2)CC2(COC2)CO1 (racemic) [Example 58] | – | > 6.40 | > 6.40 | > 6.40 | – | –
5 | CCP1(=O)Cc2ccc(c(OC)c2)Nc2ncc(C(F)(F)F)c(n2)Nc2ccc(nc2C(=O)NC)-c2cnn(c2)CCCO1 (single isomer, unassigned) [Example 67A] | > 6.40 | 5.40 to 6.40 | > 6.40 | – | 5.40 to 6.40 | –
6 | CCOP1(=O)Cc2ccc(c(OC)c2)Nc2ncc(C(F)(F)F)c(n2)Nc2ccc(nc2C(=O)NC)-c2cnn(c2)CCCO1 (racemic) [Example 6] | – | > 6.40 | > 6.40 | > 6.40 | – | –
7 | CCOP1(=O)Cc2ccc(c(Cl)c2)Nc2ncc(C(F)(F)F)c(n2)Nc2ccc(nc2C(=O)NC)-c2cnn(c2)CCCCO1 (racemic) [Example 25] | – | > 6.40 | > 6.40 | > 6.40 | – | –
8 | CCOP1(=O)Cc2ccc(c(OC)c2)Nc2ncc(C(F)(F)F)c(n2)Nc2ccc(nc2C(=O)NOC)-c2cnn(c2)CCCO1 (racemic) [Example 46] | – | > 6.40 | > 6.40 | > 6.40 | 5.40 to 6.40 | –
9 | CCOP1(=O)Cc2ccc(c(OC)c2)Nc2ncc(C(F)(F)F)c(n2)Nc2ccc(c(Cl)c2C(=O)NC)-c2cnn(c2)CCCO1 (racemic) [Example 28] | – | – | 5.40 to 6.40 | > 6.40 | < 5.40 | –
10 | CCOP1(=O)Cc2ccc(c(OC)c2Cl)Nc2ncc(C(F)(F)F)c(n2)Nc2ccc(nc2C(=O)NC)-c2cnn(c2)CCCO1 (single isomer, unassigned) [Example 54A] | – | < 5.40 | 5.40 to 6.40 | > 6.40 | – | –
11 | CCOP1(=O)Cc2ccc(c(OC)c2)Nc2ncc(C(F)(F)F)c(n2)Nc2ccc(nc2C(=O)NC)-c2cnn(c2)CC(F)(F)CO1 (single isomer, unassigned) [Example 59A] | – | 5.40 to 6.40 | > 6.40 | – | – | > 6.40
12 | CCOP1(=O)Cc2ccc(c(OC)c2)Nc2ncc(C(F)(F)F)c(n2)Nc2ccc(nc2C(=O)NC)-c2cnn(c2)CC[C@@H](C)O1 (mixture of isomers) [Example 69] | – | > 6.40 | > 6.40 | – | – | –
13 | CCOP1(=O)Cc2ccc(c(OC)c2)Nc2ncc(C(F)(F)F)c(n2)Nc2ccc(nc2C(=O)NC)-c2cc(C(=O)N(C)C)n(c2)CCCO1 (racemic) [Example 41] | – | > 6.40 | > 6.40 | > 6.40 | – | –
14 | CCOP1(=O)Cc2ccc(c(OC)c2)Nc2ncc(C(F)(F)F)c(n2)Nc2ccc(c3c2C(=O)N(C)C3)-c2cnn(c2)CCCCO1 (racemic) [Example 17] | > 6.40 | > 6.40 | > 6.40 | – | – | –
15 | CCOP1(=O)Cc2ccc(c(OC)c2)Nc2ncc(C(F)(F)F)c(n2)Nc2ccc(nc2C(=O)NC)-c2cnn(c2)CC2(COC2)CO1 (single isomer, unassigned) [Example 44A] | – | > 6.40 | > 6.40 | > 6.40 | – | –
16 | CCOP1(=O)Cc2ccc(c(Cl)c2)Nc2ncc(C(F)(F)F)c(n2)Nc2ccc(nc2C(=O)NC)-c2cnn(c2)CCCO1 (racemic) [Example 24] | > 6.40 | > 6.40 | 5.40 to 6.40 | – | – | –
17 | CCOP1(=O)Cc2ccc(c(OC)c2)Nc2ncc(C(F)(F)F)c(n2)Nc2ccc(nc2C(=O)NC)-c2cnn(c2)CC2(CC2)CO1 (racemic) [Example 63] | – | > 6.40 | > 6.40 | – | – | –
18 | CCOP1(=O)Cc2ccc(c(OC)c2Cl)Nc2ncc(C(F)(F)F)c(n2)Nc2ccc(nc2C(=O)NC)-c2cnn(c2)CCCO1 (racemic) [Example 54] | – | 5.40 to 6.40 | > 6.40 | > 6.40 | – | –
19 | CCOP1(=O)Cc2ccc(c(OC)c2)Nc2ncc(C(F)(F)F)c(n2)Nc2ccc(nc2C(=O)NC)-c2cnn(c2C)CCCO1 (racemic) [Example 35] | > 6.40 | > 6.40 | > 6.40 | – | – | –
20 | CCOP1(=O)Cc2ccc(c(OC)c2Cl)Nc2ncc(C(F)(F)F)c(n2)Nc2ccc(nc2C(=O)NC)-c2cnn(c2)CC2(COC2)CO1 (racemic) [Example 55] | – | > 6.40 | > 6.40 | > 6.40 | 5.40 to 6.40 | –
21 | CCOP1(=O)Cc2ccc(c(OC)c2)Nc2ncc(C(F)(F)F)c(n2)Nc2ccc(nc2C(=O)NC)-c2c(C)nn(c2C)CCCO1 (racemic) [Example 43] | > 6.40 | 5.40 to 6.40 | > 6.40 | – | – | –
22 | CCOP1(=O)Cc2ccc(cc2)Nc2ncc(C(F)(F)F)c(n2)Nc2ccc(cc2C(=O)N(C)C)-c2cnn(c2)CCCO1 (racemic) [Example 11] | – | 5.40 to 6.40 | > 6.40 | > 6.40 | – | –
23 | CCOP1(=O)Cc2ccc(c(Cl)c2)Nc2ncc(C(F)(F)F)c(n2)Nc2ccc(nc2C(=O)NC)-c2cnn(c2)CCCO1 (single isomer, unassigned) [Example 24A] | > 6.40 | < 5.40 | > 6.40 | – | 5.40 to 6.40 | –
24 | CNC(=O)c1nc2ccc1Nc1nc(ncc1C(F)(F)F)Nc1ccc(cc1OC)CP(=O)(OC(C)C)OCCCn1cc-2cn1 (racemic) [Example 72] | – | > 6.40 | > 6.40 | – | > 6.40 | –
25 | CNC(=O)c1nc2ccc1Nc1nc(ncc1C(F)(F)F)Nc1ccc(cc1OC)CP(=O)(OC(C)C)OCCCn1cc-2cn1 (single isomer, unassigned) [Example 72A] | – | 5.40 to 6.40 | > 6.40 | – | > 6.40 | –
26 | CCOP1(=O)Cc2ccc(c(OC)c2)Nc2ncc(C(F)(F)F)c(n2)Nc2ccc(nc2C(=O)NC)-c2cnn(c2)CC[C@H](C)O1 (mixture of isomers) [Example 70] | – | > 6.40 | > 6.40 | – | 5.40 to 6.40 | –
27 | CCP1(=O)Cc2ccc(c(OC)c2)Nc2ncc(C(F)(F)F)c(n2)Nc2ccc(nc2C(=O)NC)-c2cnn(c2)CC2(CC2)CO1 (racemic) [Example 71] | – | > 6.40 | > 6.40 | – | > 6.40 | –
28 | CNC(=O)c1nc2ccc1Nc1nc(ncc1C(F)(F)F)Nc1ccc(cc1OC)CP(C)(=O)OCCCn1cc-2cn1 (single isomer, unassigned) [Example 61B] | > 6.40 | – | – | – | – | –

From patent US9133224B2, “Macrocyclic kinase inhibitors” (OSI Pharmaceuticals, LLC, priority 2010, dated 2015)
